Experiments:
SARS-CoV-2 PLpro = biological target: T1, SARS-CoV-2 PLpro (Severe acute respiratory syndrome coronavirus 2, UniProt P0DTD1); assay: IC50 inhibitory assay, fluorogenic substrate cleavage by PLpro; type: biochemical; conditions: for IC50: SARS-CoV-2 PLpro 0.1 μM, substrate 10 μM, pH 8.1, 37 °C, 10 min preincubation; for inhibitory potency of PROTAC and parent ligand in binary IC50 experiment (in words): in vitro inhibitory assay, 20 mM HEPES, pH 8.1, 1% DMSO, PROTAC compared with parent ligand
T1 construct: The papain-like protease domain (PLpro) of SARS-CoV-2 (SCoV2)
Procedure: The inhibitory activities of compounds against SARS-CoV-2 PLpro were determined in a reaction buffer containing 20 mM HEPES, 40 mM NaCl, 5% glycerol, 2 mM DTT (freshly added before the measurements), pH 8.1, at 37 °C. A fluorescent substrate of SARS-CoV-2 PLpro (Z-Arg-leu-Arg-Gly-Gly-[…]AMC; Biosyntan, Berlin) was used, and the fluorescence signal of the cleaved substrate was monitored using a Tecan Spark® fluorescence spectrophotometer at an […] wavelength of 460/360 nm. SARS-CoV-2 PLpro (10 μL per well) was pipetted into a 96-well plate together with reaction buffer reaction buffer (50 μL per well, final enzyme concentration: 0.1 μM). Compounds (10 μL per well) were added at varying concentrations, and plates incubated at 37 °C for 10 mins. Finally, the reaction was initiated by adding 30 μL of the substrate (final concentration: 10 μM) dissolved in the reaction buffer.
FIG. 1: PROTAC and parent ligand for SARS-CoV-2 PLpro in a binary IC50 experiment. C10778A PROTAC (top left), comprising a SARS-CoV-2 PLpro targeting ligand C10778B (bottom left) connected to thalidomide via a C3 alkyl linker. IC50 values have been determined in an in vitro inhibitory binding assay whereby the fluorescence signal resulting from cleavage of a fluorogenic substrate by PLpro is measured. Inhibition of PLpro is associated with reduced cleavage of the fluorogenic substrate. […] Assay conditions: experiments were performed in 20 mM HEPES buffer containing 40 mM NaCl 5% glycerol, 2 mM DTT at pH 8.1. A fluorogenic substrate for PLpro (Z-Arg-leu-Arg-Gly-Gly-AMC) was used to determine the inhibition rate of compounds. Final DMSO concentration in each reaction was 1%. Measurements were performed in triplicate.

SARS-CoV-2 = assay: Antiviral assay in infected Vero E6 cells (ATP quantification, Cell Titer Glo); conditions: Vero E6 cells, MOI 0.05, 72 h; for inhibition at 10 µM / inhibition at 50 µM: Severe acute respiratory syndrome coronavirus 2, Vero C1008, 72 h; for inhibition at 10 µM: read-out: Antiviral Activity, 10 uM (cell viability assay), 10 uM; for inhibition at 50 µM: read-out: Antiviral Activity, 50 uM (cell viability assay), 50 uM; for Antiviral Activity, 10 uM (cell viability assay): 4320 min
Procedure: Vero E6 cells (2×10^4/well) were seeded in 96 well plates one day before the experiment. Pre-treatment, the medium was removed and compounds were added at concentrations varying from 0.1-100 μM. After 24 h incubation, the medium was removed and cells were infected with MOI 0.05 SARS-CoV-2 SARS-CoV2/ZG/297-20. After 1 h infection, the viruses were removed and the same concentration of compounds were added back into the cells. After 72 h incubation at 37 °C, EC50 measurements were made using ATP quantification (Cell Titer Glo).

Row | Compound | IC50 (SARS-CoV-2 PLpro) [µM] | inhibition at 10 µM (SARS-CoV-2) [%] | inhibition at 50 µM (SARS-CoV-2) [%] | Antiviral Activity, 10 uM (cell viability assay) (SARS-CoV-2) | Antiviral Activity, 50 uM (cell viability assay) (SARS-CoV-2; 50 uM) | inhibitory potency of PROTAC and parent ligand in binary IC50 experiment (in words) (SARS-CoV-2 PLpro)
1 | Cc1ccc(NC2CCNCC2)cc1C(=O)N[C@H](C)c1cccc(-c2ccc(CNC(=O)CCCCNC(=O)COc3ccc(C4CCC(=O)NC4=O)cc3)s2)c1 (stereo partly drawn) [Compound C10778F] | < 10 | < 25 | < 25 |  |  | 
2 | C[C@H](c1cccc2ccccc12)N1CCC(C(=O)NCc2cc(F)cc(NC(=O)N3CCN(CCNC(=O)COc4ccc(C5CCC(=O)NC5=O)cc4)CC3)c2)CC1 (stereo partly drawn) [TS519] | < 10 | < 25 | < 25 |  |  | 
3 | C[C@H](c1cccc2ccccc12)N1CCC(C(=O)NCc2cc(F)cc(NC(=O)N3CCN(CCOCCOCCOCCOc4cccc5c4C(=O)N(C4CCC(=O)NC4=O)C5=O)CC3)c2)CC1 (stereo partly drawn) [TS423] | < 10 | < 25 | < 0 |  |  | 
4 | Cc1ccc(NC(=O)CCCCCNc2cccc3c2CN(C2CCC(=O)NC2=O)C3=O)cc1C(=O)N[C@H](C)c1cccc2ccccc12 (stereo partly drawn) [TS121] | 10 to 25 | < 0 | < 0 |  |  | 
5 | Cc1ccc(NC2CCNCC2)cc1C(=O)N[C@H](C)c1cccc(-c2ccc(CNC(=O)CCCCCNC(=O)COc3ccc(C4CCC(=O)NC4=O)cc3)s2)c1 (stereo partly drawn) [Compound C10778G] | < 1 | < 25 | < 25 |  |  | 
6 | Cc1ccc(NC(=O)CCCCCOc2cc(-c3scnc3C)ccc2CNC(=O)[C@@H]2C[C@@H](O)CN2C(=O)[C@@H](NC(=O)C2(F)CC2)C(C)(C)C)cc1C(=O)N[C@H](C)c1cccc2ccccc12 (stereo in doubt) [TS291] | > 25 | < 0 | < 25 |  |  | 
7 | C[C@H](c1cccc2ccccc12)N1CCC(C(=O)NCc2cc(F)cc(NC(=O)N3CCN(CCCCOc4cccc5c4C(=O)N(C4CCC(=O)NC4=O)C5=O)CC3)c2)CC1 (stereo partly drawn) [TS452] | < 10 | < 0 | < 0 |  |  | 
8 | C[C@H](c1cccc2ccccc12)N1CCC(C(=O)NCc2cc(F)cc(NC(=O)N3CCN(CCCCNC(=O)COc4ccc(N5CCC(=O)NC5=O)cc4)CC3)c2)CC1 [TS557] | < 10 | < 0 | < 0 |  |  | 
9 | C[C@H](c1cccc2ccccc12)N1CCC(C(=O)NCc2cc(F)cc(NC(=O)N3CCN(CCOCCOCCC(=O)N4CCN(c5ccc(C6CCC(=O)NC6=O)cc5)CC4)CC3)c2)CC1 (stereo partly drawn) [TS568] | < 10 | < 25 | < 75 |  |  | 
10 | Cc1ccc(NC(=O)CCCCC(=O)N[C@H](C(=O)N2C[C@H](O)C[C@H]2C(=O)NCc2ccc(-c3scnc3C)cc2)C(C)(C)C)cc1C(=O)N[C@H](C)c1cccc2ccccc12 [TS309] | 10 to 25 | < 0 | < 0 |  |  | 
11 | C[C@H](c1cccc2ccccc12)N1CCC(C(=O)NCc2cc(F)cc(NC(=O)N3CCN(CCOCCOCCC(=O)N4CCN(c5ccc(N6CCC(=O)NC6=O)cc5)CC4)CC3)c2)CC1 [TS569] | < 10 | < 0 | < 25 |  |  | 
12 | Cc1ccc(NC(=O)CCCNc2cccc3c2C(=O)N(C2CCC(=O)NC2=O)C3=O)cc1C(=O)N[C@H](C)c1cccc2ccccc12 (stereo partly drawn) [TS145] | < 10 |  |  |  |  | 
13 | Cc1ccc(NC(=O)CCCCNc2cccc3c2C(=O)N(C2CCC(=O)NC2=O)C3=O)cc1C(=O)N[C@H](C)c1cccc2ccccc12 (stereo partly drawn) [TS267] | < 10 | < 0 | < 0 |  |  | 
14 | Cc1ccc(NC2CCNCC2)cc1C(=O)N[C@H](C)c1cccc(-c2ccc(CNC(=O)CCCCCOc3cccc4c3C(=O)N(C3CCC(=O)NC3=O)C4=O)s2)c1 (stereo partly drawn) [Compound C10778C] | < 10 | < 0 | < 0 |  |  | 
15 | Cc1ccc(NC2CCNCC2)cc1C(=O)N[C@H](C)c1cccc(-c2ccc(CNC(=O)CCCCCNc3ccc4c(c3)C(=O)N(C3CCC(=O)NC3=O)C4=O)s2)c1 (stereo partly drawn) [Compound C10778D] | < 1 | < 0 | < 0 |  |  | 
16 | C[C@H](c1cccc2ccccc12)N1CCC(C(=O)NCc2cc(F)cc(NC(=O)N3CCN(CC4CCN(c5ccc6c(c5)C(=O)N(C5CCC(=O)NC5=O)C6=O)CC4)CC3)c2)CC1 (stereo partly drawn) [TS535] | 10 to 25 | < 25 | < 75 |  |  | 
17 | Cc1ccc(NC(=O)CCOCCOCCNc2cccc3c2C(=O)N(C2CCC(=O)NC2=O)C3=O)cc1C(=O)N[C@H](C)c1cccc2ccccc12 (stereo partly drawn) [TS139] | < 10 | < 0 | < 25 |  |  | 
18 | Cc1ccc(NC(=O)CCCCCCCCC(=O)N[C@H](C(=O)N2C[C@H](O)C[C@H]2C(=O)NCc2ccc(-c3scnc3C)cc2)C(C)(C)C)cc1C(=O)N[C@H](C)c1cccc2ccccc12 [TS311] | > 25 | < 0 | < 0 |  |  | 
19 | C[C@H](c1cccc2ccccc12)N1CCC(C(=O)NCc2cc(F)cc(NC(=O)N3CCN(CCCCCCCCOc4cccc5c4C(=O)N(C4CCC(=O)NC4=O)C5=O)CC3)c2)CC1 (stereo partly drawn) [TS446] | > 25 | < 50 | > 75 |  |  | 
20 | Cc1ccc(NC2CCNCC2)cc1C(=O)N[C@H](C)c1cccc(-c2ccc(CNC(=O)CCCNc3cccc4c3C(=O)N(C3CCC(=O)NC3=O)C4=O)s2)c1 (stereo partly drawn) [Compound C10778I] | < 1 | < 0 | < 0 |  |  | 
21 | Cc1ccc(NC(=O)CCOCCOCCNc2ccc3c4c(cccc24)C(=O)N(C2CCC(=O)NC2=O)C3=O)cc1C(=O)N[C@H](C)c1cccc2ccccc12 (stereo partly drawn) [TS170] | < 10 | < 0 | < 25 |  |  | 
22 | Cc1ccc(NC(=O)CCOCCNc2cccc3c2C(=O)N(C2CCC(=O)NC2=O)C3=O)cc1C(=O)N[C@H](C)c1cccc2ccccc12 (stereo partly drawn) [TS144] | 10 to 25 | < 0 | < 0 |  |  | 
23 | C[C@H](c1cccc2ccccc12)N1CCC(C(=O)NCc2cc(F)cc(NC(=O)N3CCN(CCCCC(=O)N4CCN(c5ccc(N6CCC(=O)NC6=O)cc5)CC4)CC3)c2)CC1 [TS553] | < 10 | < 25 | < 25 |  |  | 
24 | Cc1ccc(NC(=O)CCCCNc2cccc3c2CN(C2CCC(=O)NC2=O)C3=O)cc1C(=O)N[C@H](C)c1cccc2ccccc12 (stereo partly drawn) [TS124] | < 10 | < 0 | < 25 |  |  | 
25 | Cc1ccc(NC(=O)CCOCCOCCOCCNc2ccc3c4c(cccc24)C(=O)N(C2CCC(=O)NC2=O)C3=O)cc1C(=O)N[C@H](C)c1cccc2ccccc12 (stereo partly drawn) [TS182] | < 10 | < 0 | < 25 |  |  | 
26 | Cc1ccc(NC(=O)CCOCCNc2ccc3c4c(cccc24)C(=O)N(C2CCC(=O)NC2=O)C3=O)cc1C(=O)N[C@H](C)c1cccc2ccccc12 (stereo partly drawn) [Compound C10778H] | > 25 |  |  | D (<25% = D) | E (<0% = E) | 
27 | C[C@H](c1cccc2ccccc12)N1CCC(C(=O)NCc2cc(F)cc(NC(=O)N3CCN(CCCCCCOc4cccc5c4C(=O)N(C4CCC(=O)NC4=O)C5=O)CC3)c2)CC1 (stereo partly drawn) [TS444] | < 10 | < 25 | < 25 |  |  | 
28 | Cc1ccc(NC(=O)CCOCCNc2ccc3c4c(cccc24)C(=O)N(C2CCC(=O)NC2=O)C3=O)cc1C(=O)N[C@H](C)c1cccc2ccccc12 (stereo in doubt) [TS181] |  |  | < 0 | E (<0% = E) |  | 
29 | CC(=O)NCc1ccc(-c2cccc([C@@H](C)NC(=O)c3cc(NC4CCNCC4)ccc3C)c2)s1 [Compound C10778B, (R)—N-(1-(3-(5-(Acetamidomethyl)thiophen-2-yl)phenyl)ethyl)-2-methyl-5-(piperidin-4-ylamino)benzamide, reference compound] |  |  |  |  |  | nM activity for PLpro
30 | Cc1ccc(NC2CCNCC2)cc1C(=O)N[C@H](C)c1cccc(-c2ccc(CNC(=O)CCCOc3cccc4c3C(=O)N(C3CCC(=O)NC3=O)C4=O)s2)c1 (stereo partly drawn) [Compound C10778A, N-((1R)-1-(3-(5-((4-((2-(2,6-Dioxopiperidin-3-yl)-1,3-dioxoisoindolin-4-yl)oxy)butanamido)methyl)thiophen-2-yl)phenyl)ethyl)-2-methyl-5-(piperidin-4-ylamino)benzamide] | < 1 |  |  |  |  | retains nM activity for PLpro, similar to the parent compound

Reference: patent US20260364182A1, “PROTEOLYSIS-TARGETING CHIMERAS AGAINST THE PAPAIN-LIKE PROTEASE OF SARS-COV-2” (Tocris Cookson Limited, priority 2022, published 2026)
